Measurements published in ChEMBL document CHEMBL3507680, “University of Dundee, Gates Library screen for HepG2 cell viability”.

Test: Human HepG2 cell viability assay in 384 well format
Format: toxicity, cell-based
Set-up: dose 125 nL, time 70.5 hour; cytotoxicity at 70.5 h: concentration not given beside the values
Settings: HepG2 cells, read-out: Inhibition

Row | SMILES | cytotoxicity at 70.5 h [%]
1 | Cc1cc(C)n(CCN2CCN(C(=O)c3ccccc3Br)CC2)n1 | -2.29
2 | Cc1cc(C)n(CCN2CCN(C(=O)c3cc4ccccc4o3)CC2)n1 | -0.14
3 | CCOCC(=O)NCC(Cc1cccc(F)c1)N1CCCCC1=O (stereo not drawn) | 30
4 | Cn1cc(C(=O)NCC(Cc2cccc(F)c2)N2CCCCC2=O)nn1 (stereo not drawn) | -14.8
5 | O=C1NCCN1C(CNS(=O)(=O)C1CC1)Cc1cccc(F)c1 (stereo not drawn) | -13.5
6 | CC(=O)NCC(Cc1cccc(F)c1)n1cccc1 (stereo not drawn) | -5.86
7 | CCC(=O)NCC(Cc1cccc(F)c1)n1cccc1 (stereo not drawn) | -7.66
8 | O=C(NCC(Cc1cccc(F)c1)n1cccc1)C1CC1 (stereo not drawn) | -16.2
9 | COCC(=O)NCC(Cc1cccc(F)c1)n1cccc1 (stereo not drawn) | 0.782
10 | O=S(=O)(c1ccccc1Br)N1CCC2(CC1)OCCS2 | -2.19
11 | O=C(NCc1c(F)cccc1F)C1CN(C(=O)c2cnccn2)C1 | -6.6
12 | CSc1ccccc1NC(=O)C1CN(C(=O)c2ccc3c(c2)OCO3)C1 | 0.521
13 | O=C(Nc1cccnc1)C1CN(C(=O)c2ccc3c(c2)OCO3)C1 | -14.4
14 | COCCCNC(=O)C1CN(C(=O)c2cnccn2)C1 | -15.7
15 | CCOC(=O)CNC(=O)C1CN(C(=O)c2cnccn2)C1 | -5.07
16 | O=C(Nc1cccnc1)C1CCN(c2cc(-n3ccnc3)ncn2)CC1 | -5.59
17 | O=C(Nc1cccnc1)C1CCCN(c2cc(-n3cccn3)ncn2)C1 (stereo not drawn) | 4.07
18 | CCS(=O)(=O)NCC1CCN(c2cnccn2)CC1 | -6.43
19 | O=S(=O)(NCC1CCN(c2cnccn2)CC1)c1ccc(F)c(Cl)c1 | -1.36
20 | COc1ccc(Cl)cc1C(=O)NCC1CCN(C(=O)c2ccoc2)CC1 | -15.3

Row | SMILES | cytotoxicity at 70.5 h [%]
21 | Cc1csc(C(=O)NCCN2CCC(c3cccs3)CC2)c1 | 35.6
22 | O=C(NCCN1CCC(c2cccs2)CC1)c1ccc(F)cc1Cl | -3.13
23 | CSCC(C)(O)CNC(=O)Nc1cc(C)cc(C)c1 (stereo not drawn) | -5.72
24 | CSCCC(C)(O)CNS(=O)(=O)Cc1ccc(F)cc1 (stereo not drawn) | -17
25 | CSc1ccccc1C(=O)NCCC(O)c1ccco1 (stereo not drawn) | 16.9
26 | CSc1ncccc1C(=O)NCCC(O)c1cccs1 (stereo not drawn) | -2.95
27 | O=S(=O)(NCCC(O)c1cccs1)c1ccccc1Cl (stereo not drawn) | -10.8
28 | O=C(Nc1nc2c(s1)CN(C(=O)NCc1cccs1)CC2)C1CC1 | -9.79
29 | O=C(Nc1nc2c(s1)CN(S(=O)(=O)C1CC1)CC2)c1ccccn1 | -1.49
30 | O=C(Nc1nc2c(s1)CN(S(=O)(=O)C1CC1)CC2)Nc1ccccc1F | 23.7
31 | O=C(Nc1cccc(C(F)(F)F)c1)N1CCN(CCn2ccnc2)CC1 | -10.1
32 | COc1nn(C)cc1C(=O)NCC1(O)CCOCC1 | -3.26
33 | Cc1ccc(S(=O)(=O)NCC2(O)CCOc3ccccc32)s1 (stereo not drawn) | -4.01
34 | Cc1cc(C(=O)NCc2cc(C)oc2C)no1 | -5.78
35 | COC(=O)NCCCn1ccnc1-c1ccccc1 | -6.73
36 | CCOCC(=O)NCCCn1ccnc1-c1ccccc1 | -7.22
37 | O=C(NCc1nc2ccccc2[nH]1)c1cc2n(n1)CCCO2 | -1.37
38 | CCOC(=O)Cc1csc(NC(=O)c2cc3n(n2)CCCO3)n1 | -2.3
39 | O=C(NCc1nc2ccccc2[nH]1)c1cnn2c1OCCC2 | -1.96
40 | Cc1ccccc1C(=O)N1CC2(COC(C)(C)OC2)C1 | 9.04

Row | SMILES | cytotoxicity at 70.5 h [%]
41 | CC1(C)OCC2(CO1)CN(C(=O)c1ccccc1Cl)C2 | -1.63
42 | CC1(C)OCC2(CO1)CN(S(=O)(=O)c1ccc(Cl)s1)C2 | -1.76
43 | CC(=O)N(C)CC(=O)Nc1cnc(-n2ccnc2C)nc1 | 27.9
44 | COCC(=O)Nc1cnc(N2CCCC2)nc1 | -0.927
45 | COCC(=O)Nc1cnc(N2CCOCC2)nc1 | -3.21
46 | O=C(Nc1cnc(N2CCOCC2)nc1)c1ccc(C(F)(F)F)cc1 | 6.8
47 | O=C(CCCc1ccccc1)Nc1cnc(N2CCOCC2)nc1 | 2.35
48 | O=C(COc1ccc(Cl)cc1)Nc1cnc(N2CCOCC2)nc1 | 1.79
49 | CCOc1ccc(NC(=O)Nc2cnc(N3CCOCC3)nc2)cc1 | 3.88
50 | CN(C)c1ncc(NS(=O)(=O)c2ccc(OC(F)(F)F)cc2)cn1 | 3.34
51 | CN1CCC2(Cc3ccccc3NC2=O)C1 (stereo not drawn) | -3.49
52 | CC(C)C(=O)N1CCCC12CCN(C(=O)c1ccno1)C2 (stereo not drawn) | -1.72
53 | O=C(C[C@H]1[C@H]2CN(C(=O)CO)C[C@@H]12)Nc1cccnc1 | 0.591
54 | CN(C)C(=O)c1nc2c(n1C)CCN(Cc1ccccc1)C2 | 0.767
55 | Cc1ccc2oc(C(=O)N3CCCC(n4nc(C)nc4C)C3)cc2n1 (stereo not drawn) | -9.11
56 | CC(C)CN(C)Cc1nc2c(cnn2C)c(=O)[nH]1 | 12.1
57 | CC(C)N(Cc1ccccn1)Cc1nc2c(cnn2C)c(=O)[nH]1 | -6.49
58 | Cc1ccc(CN(Cc2nc3c(cnn3C)c(=O)[nH]2)C(C)C)s1 | -0.211
